Assay results taken from ChEMBL document CHEMBL5236628 (J Med Chem, 2022).
Values after ≈ are worked out from the molar mass of the structure shown. Active and inactive are the calls of the source. The rule behind the calls is not given here.

How the values were obtained:
[1] = test system: Plasmodium falciparum; test: Antiplasmodial activity against multidrug resistant Plasmodium falciparum K1 incubated for 72 hrs by microplate reader assay; format: functional, organism-based; settings: K1, 72 h
[2] = test system: Plasmodium falciparum; test: Antiplasmodial activity against early stage (I to III) Plasmodium falciparum incubated for 48 hrs by bioluminescence assay; format: functional, organism-based
[3] = test system: Plasmodium berghei; test: Antiplasmodial activity against liver stage Plasmodium berghei ANKA sporozoites expressing GFP infected in HepG2 cells pre-infected with cells for 1 hr prior to compound addition and measured after 48 hrs by flow cytometry analysis
[4] = test system: HepG2; test: Cytotoxicity against human HepG2 cells after 48 hrs by CellTiter Glo assay; format: toxicity, cell-based; settings: hepg2, 48 h
[5] = Cytotoxicity against CHO cells measured after 48 hrs by MTT assay; settings: Chinese hamster
[6] = test system: Plasmodium berghei; test: Antiplasmodial activity against Plasmodium berghei ANKA infected in mouse assessed as reduction in parasitemia at 50 mg/kg, po administered for 4 days; format: functional; design: scale not given: the % may be the effect or the level left; settings: time 4 day
[7] = test system: Plasmodium berghei; test: Antiplasmodial activity against Plasmodium berghei ANKA infected in mouse assessed as mean survival days at 50 mg/kg, po administered for 4 days and measured upto 30 days; format: functional; settings: time 4 day
[8] = test system: Plasmodium falciparum; test: microbe, parasite or virus in culture; settings: NF54, 72 h
[9] = test system: Plasmodium falciparum; test: Antiplasmodial activity against chloroquine sensitive Plasmodium falciparum NF54 infected in human erythrocytes incubated for 48 hrs followed by addition of [3H]-hypoxanthine and measured after 24 hrs by beta-plate liquid scintillation counting method; format: functional, organism-based
[10] = test system: Plasmodium falciparum; test: Antiplasmodial activity against multidrug resistant Plasmodium falciparum K1 infected in human erythrocytes incubated for 48 hrs followed by addition of [3H]-hypoxanthine and measured after 24 hrs by beta-plate liquid scintillation counting method; format: functional, organism-based
[11] = Drug accumulation in lysosomes of human erythrocytes infected with chloroquine sensitive Plasmodium falciparum NF54 by live cell imaging analysis; format: ADME, cell-based; settings: erythrocyte
[12] = Drug accumulation in hemozoin crystal of human erythrocytes infected with chloroquine sensitive Plasmodium falciparum NF54 by live cell imaging analysis; format: ADME, cell-based; settings: erythrocyte
[13] = Drug accumulation in nucleus of human erythrocytes infected with chloroquine sensitive Plasmodium falciparum NF54 by live cell imaging analysis; format: ADME, subcellular; settings: erythrocyte
[14] = Drug accumulation in mitochondria of human erythrocytes infected with chloroquine sensitive Plasmodium falciparum NF54 by live cell imaging analysis; format: ADME; settings: erythrocyte
[15] = Drug accumulation in endoplasmic reticulum of human erythrocytes infected with chloroquine sensitive Plasmodium falciparum NF54 by live cell imaging analysis; format: ADME, subcellular; settings: erythrocyte
[16] = Drug accumulation in neutral lipid droplets of human erythrocytes infected with chloroquine sensitive Plasmodium falciparum NF54 by live cell imaging analysis; format: ADME, cell-based; settings: erythrocyte
[17] = physchem; settings: buffer, pH 7.4
[18] = test system: Plasmodium falciparum; test: Antiplasmodial activity against Plasmodium falciparum assessed as reduction in parasite viability incubated for 72 hrs by LDH assay; format: functional, organism-based
[19] = Cmax in mouse at 10 mg/kg, po; format: ADME, organism-based; design: dose 10 mg/kg, route po; settings: in vivo
[20] = Tmax in mouse at 10 mg/kg, po; format: ADME, organism-based; settings: in vivo
[21] = Apparent half life in mouse at 10 mg/kg, po; format: ADME, organism-based; settings: in vivo, read-out: t1/2(app) (converted)
[22] = Apparent half life in mouse at 3 mg/kg, iv; format: ADME, organism-based; settings: in vivo, read-out: t1/2(app) (converted)
[23] = Intrinsic clearance in mouse at 3 mg/kg, iv; format: ADME, organism-based; settings: in vivo
[24] = Volume of distribution in mouse at 3 mg/kg, iv; format: ADME, organism-based; settings: in vivo
[25] = AUC(0 to infinity) in mouse at 3 mg/kg, iv; format: ADME, organism-based; design: dose 3 mg/kg, route iv; settings: in vivo
[26] = AUC(0 to infinity) in mouse at 10 mg/kg, po; format: ADME, organism-based; design: dose 10 mg/kg, route po; settings: in vivo
[27] = AUC(0 to infinity) in mouse at 50 mg/kg, po; format: ADME, organism-based; design: dose 50 mg/kg, route po; settings: in vivo
[28] = Oral bioavailability in mouse at 10 mg/kg; format: ADME, organism-based; settings: in vivo
[29] = Oral bioavailability in mouse at 50 mg/kg; format: ADME, organism-based; settings: in vivo
[30] = test system: Hemozoin; test: Inhibition of Beta-hematin in Plasmodium falciparum NF54 assessed as hemozoin formation after 36 hrs by flow cytometry analysis
[31] = Cmax in mouse at 50 mg/kg, po; format: ADME, organism-based; design: dose 50 mg/kg, route po; settings: in vivo
[32] = Tmax in mouse at 50 mg/kg, po; format: ADME, organism-based; settings: in vivo
[33] = Apparent half life in mouse at 50 mg/kg, po; format: ADME, organism-based; settings: in vivo, read-out: t1/2(app) (converted)
[34] = Selectivity index, ratio of IC50 for Plasmodium falciparum NF54 to IC50 for CHO cells; settings: hamster

Row | Compound | IC50 [1] [nM] | Activity [4] | IC50 at 48 h ([5]; cho) [nM] | Activity [6] [%] | MSD [7] [days] | IC50 [8] [nM] | solubility kinetic at 2 h [17] [µM] | Cmax [19] [nM] | Tmax [20] [h] | half-life [21] [h] | half-life [22] [h] | CL [23] [mL/min/kg] | Vd [24] [L/kg] | AUC [25] [µM/min] | AUC [26] [µM/min] | AUC [27] [µM/min] | bioavailability [28] [%] | bioavailability [29] [%] | Cmax [31] [nM] | Tmax [32] [h] | other results
1 | Cn1c(NC2CCN(CCc3ccc(-c4nc(C(F)(F)F)no4)cc3)CC2)nc2ccccc21 | 48 | Non-Toxic | 3180 | 90 | 9 | 66 |  |  |  |  |  |  |  |  |  |  |  |  |  |  | IC50 [2]: 1670 nM; IC50 [3]: 210 nM
2 | O=[N+]([O-])c1ccc(NCCn2c(NC3CCN(CCc4ccc(-c5nc(C(F)(F)F)no5)cc4)CC3)nc3ccccc32)c2nonc12 |  |  |  |  |  |  | 120 (≈ 79.5 µg/mL) |  |  |  |  |  |  |  |  |  |  |  |  |  | IC50 [9]: 140 nM; IC50 [10]: 370 nM; Drug uptake [11]: Active; Drug uptake [12]: Active; Drug uptake [13]: Not Active; Drug uptake [14]: Active; Drug uptake [15]: Active; Drug uptake [16]: Active
3 | COc1ccc(CCN2CCC(Nc3nc4cc(Cl)c(Cl)cc4[nH]3)CC2)cc1 |  |  |  |  |  |  |  |  |  |  |  |  |  |  |  |  |  |  |  |  | IC50 [18]: 83 nM
4 | FC(F)(F)c1noc(-c2ccc(CCN3CCC(Nc4nc5ccccc5[nH]4)CC3)cc2)n1 |  | Non-Toxic | 1960 |  | 14 |  |  | 300 | 0.7 | 1.1 | 4.2 | 71.7 | 26.6 | 93.4 | 48 | 1429 | 15.6 | 93.3 | 1500 | 1.7 | inhibition [30]: inactive; half-life [33]: 10.2 h
5 | Cc1noc(-c2ccc(CCN3CCC(Nc4nc5ccccc5[nH]4)CC3)cc2)n1 | 176 |  |  | 40 |  | 55 | 80 (≈ 32.2 µg/mL) | 1000 | 1.5 | 10.3 | 11.6 | 16.6 | 13.6 | 550 | 535 | 5548 | 29.3 | 61 | 5900 | 3 | IC50 at 48 h ([5]; CHO cells): 3560 nM; selectivity ratio [34]: 64.7; half-life [33]: 9.2 h
